US9550811B2, “Peptide scaffold design” (BIONOR IMMUNO AS, priority 2010, dated 2017)
Where two headings read alike, the source gives them in different places. Where no end group is shown, it is not given here. [ ]: non-standard residue; d: D form. Nle = CCCC[C@H](N)C(=O)O

Columns and labels:
[1] = system: DC-cells; test: Cell penetration assay: staining for biotinylated peptides, dendritic cells gated as CD11c+; format: cell-based, human; details: low concentration of peptides (208 uM)
Protocol: A set of peptides were biotinylated on N-terminal, and different combinations of aminoacids, with respect to length and type, were added to the sequence box X^1, X^3 and X^4 in the peptides as illustrated by the diagram below. The peptides were tested on cells grown from one individual blood donor.
96-well U-bottom polystyrene plates (NUNC, cat no: 163320) were used for staining of human PBMCs. Briefly, 8 ul of N- or C-terminally biotinylated peptides according to table 1 or table 2 (i.e. 5 mM, 2.5 mM & 1.25 mM tested for each peptide) were incubated at 37° C. for 2 h with 40 ul of PBMC (12.5×10^6 cells/ml) from blood donors. Cells were then washed 3× with 150 ul of Cellwash (BD, cat no: 349524), followed by resuspension of each cell pellet with 100 ul of Trypsin-EDTA (Sigma, cat no: T4424), then incubated at 37° C. for 5 min. Trypsinated cells were then washed 3× with 150 ul of Cellwash (BD, cat no: 349524), followed by resuspension with BD Cytofix/Cytoperm™ plus (BD, cat no: 554715), then incubated at 4° C. for 20 min according to manufacturer. Cells were then washed 2× with 150 ul PermWash (BD, cat no: 554715). Cells were then stained with Streptavidin-APC (BD, cat no: 554067) & Anti-hCD11c (eBioscience, cat no: 12-0116) according to manufacturer at 4° C. for 30 min aiming to visualize biotinylated peptides & dendritic cells, respectively. Cells were then washed 3× with 150 ul PermWash, followed by resuspension in staining buffer (BD, cat no: 554656) before flow cytometry. Dendritic cells were gated as CD11c+ events outside lymphocyte region (i.e. higher FSC & SSC signals than lymphocytes). 200 000 total cells were acquired on a FACSCanto II flow cytometer with HTS loader, and histograms for both total cells & dendritic cells with respect to peptide-fluorescence (i.e. GeoMean) were prepared.
As shown in table 4 the peptides according to the invention had the ability to allocate through the cell membrane.

[2] = system: human PBMCs; format: cell-based; details: for Geomean value (peptide-fluorescence): With Cytofix/Cytoperm and trypsination, BC20

| Sequence | Results on DC-cells (geomean peptide-fluorescence) ([1]; BC 16) | Results on DC-cells (geomean peptide-fluorescence) ([1]; BC43) | Geomean value (peptide-fluorescence) ([2]; concentration 104 μM) | Geomean value (peptide-fluorescence) ([2]; concentration 208 μM) | Geomean value (peptide-fluorescence) ([2]; concentration 417 μM) | Geomean value (peptide-fluorescence) ([2]; concentration 833 μM) | Intracellular staining, median [2] |
| --- | --- | --- | --- | --- | --- | --- | --- |
| RGYIPLVGAPLGRRRVARALAHGVRV [SP4_c] | 20673 | 30786 |  |  |  |  |  |
| BRGYIPLVGAPLGRRVARALAHGVRV [SP7_c] | 20041 | 11832 |  |  |  |  |  |
| WGYIPLVGAPLGRRVARALAHGVRV [SP12_c] (WGYIPLVGAPLGRRVARALAHGVRV-NH2) | 37100 | 43386 |  |  |  |  |  |
| RGYIPLVGAPLGRRRVARALAHGVRVR [SP4] | 10751 | 17372 | 2946 | 7540 | 28008 | 41491 |  |
| RRGYIPLVGAPLGBGRVARALAHGVRV [SP2_c] | 323 | 13341 |  |  |  |  |  |
| EEGYIPLVGAPLGEEVARALAHGVRV [SP14] | 3704 | 1629 | 62 | 392 | 682 | 1059 |  |
| RFIIPXFTALSGGRRALLYGATPYAIG (RFIIP[Nle]FTALSGGRRALLYGATPYAIG) [V10] | 45430 |  |  |  |  |  |  |
| RGYIPLVGAPLGKKKVARALAHGVRV [SP9_c] (RGYIPLVGAPLGKKKVARALAHGVRV-NH2) | 6180 | 7758 |  |  |  |  |  |
| RGYIPLVGAPLGRRVARALAHGVRV [SP24] (RGYIPLVGAPLGRRVARALAHGVRV-NH2) | 18181 | 63639 |  |  |  |  |  |
| BRTAYERZCNILBRGRFQTVVQBA [compound 17] |  |  |  |  |  |  | 20.77 |
| GGGYIPLVGAPLGGGVARALAHGVRV [SP15] | 5076 | 2539 | 600 | 848 | 477 | 1810 |  |
| WWGGGQIVGGVYLLPRRGPRLGVRAT [SP11b_1] | 64047 |  |  |  |  |  |  |
| RGYIPLVGAPLGRRRVARALAHGVRV [SP10_c] (RGYIPLVGAPLGRRRVARALAHGVRV-NH2) | 6904 |  |  |  |  |  |  |
| WWGYLPAVGAPIRRVIRVIAHGLRL [SP51_1*] | 66582 |  |  |  |  |  |  |
| WGYIPLVGAPLGRRVARALAHGVRV [SP12] | 59274 | 31222 | 4316 | 8679 | 10869 | 11089 |  |
| SAYERMCNILKGKFQTAAQRAMM [18b] | 29740 | 33597 |  |  |  |  |  |
| RGYIPLVGAPLGRRVARALAHGVRV [SP3] | 9480 | 10573 | 4308 | 10788 | 25905 | 40456 |  |
| RRGPVVHLTLRRRGQAGDDFS [SP19] | 6522 | 6536 | 1625 | 3466 | 7201 | 17018 |  |
| WWSRNLGKVIDTLTCRRLMGYIPLVGA [SP42b_1] | 17628 |  |  |  |  |  |  |
| RGYIPLVGAPLGRRVARALAHGVRV [SP3_c] (RGYIPLVGAPLGRRVARALAHGVRV-NH2) | 18505 | 26308 |  |  |  |  |  |
| RRGYIPLVGAPLGLRRVARALAHGVRV [SP17_c] | 11830 |  |  |  |  |  |  |
| GGGQIVGGVYLLPRRGPRLGVRATR [310-11n] | 5436 |  |  |  |  |  |  |
| RNLVPMVATVBRRNLVPMVATVB [compound 18] |  |  |  |  |  |  | 3.86 |
| RNLVPMVATVBRRNLVPMVATVB [BI-050sc2] | 6019 | 11584 |  |  |  |  |  |
| GYIPLVGAPLGGVARALAHGVRV [SP1_C] (GYIPLVGAPLGGVARALAHGVRV-NH2) | 9234 |  |  |  |  |  |  |
| KALGPAATLEEMMTACQGVG [N13] | 7982 | 5953 |  |  |  |  |  |
| WWGYIPLVGAPLGRRRVARALAHGVRV [SP22] | 61597 | 18624 |  |  |  |  |  |
